Values joined by “and” are separate entries in the source; they are usually repeats but may differ in a detail not shown here. Equal values may be shown once. Inconclusive results and toxic doses are left out. Cut-off read from the data, not from the text of the source: active = T/C of 150% or more; inactive = T/C below 125%.
Test system: L1210 leukemia ip in BDF1 mice, survival T/C
Assay: NCI In Vivo Anticancer Drug Screen. Data for tumor model L1210 Leukemia (intraperitoneal) in B6D2F1 (BDF1) mice
Details: endpoint: mean survival time, higher = longer survival
In short: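 Transplantable tumor model; survival measured in treated vs vehicle control mice. Value = treated/control.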

[1] = dose: 100.0 mg/kg/injection, schedule: Q04DX003 (ip), vehicle: saline
[2] = dose: 200.0 mg/kg/injection, schedule: Q04DX003 (ip), vehicle: saline
[3] = dose: 100.0 mg/kg/injection, schedule: Q04DX003 (ip), vehicle: Klucel (hydroxypropylcellulose) (HPC)
[4] = dose: 200.0 mg/kg/injection, schedule: Q04DX003 (ip), vehicle: Klucel (hydroxypropylcellulose) (HPC)
[5] = dose: 400.0 mg/kg/injection, schedule: Q04DX003 (ip), vehicle: Klucel (hydroxypropylcellulose) (HPC)
[6] = dose: 100.0 mg/kg/injection, schedule: Q01DX009 (ip), vehicle: Klucel (hydroxypropylcellulose) (HPC)
[7] = dose: 200.0 mg/kg/injection, schedule: Q01DX009 (ip), vehicle: Klucel (hydroxypropylcellulose) (HPC)
[8] = dose: 400.0 mg/kg/injection, schedule: Q01DX009 (ip), vehicle: Klucel (hydroxypropylcellulose) (HPC)
[9] = dose: 100.0 mg/kg/injection, schedule: Q01DX001 (ip), vehicle: carboxymethylcellulose (CMC)
[10] = dose: 200.0 mg/kg/injection, schedule: Q01DX001 (ip), vehicle: carboxymethylcellulose (CMC)
[11] = dose: 400.0 mg/kg/injection, schedule: Q01DX001 (ip), vehicle: carboxymethylcellulose (CMC)
[12] = dose: 100.0 mg/kg/injection, schedule: Q01DX009 (ip), vehicle: saline with Tween-80
[13] = dose: 200.0 mg/kg/injection, schedule: Q01DX009 (ip), vehicle: saline with Tween-80
[14] = dose: 400.0 mg/kg/injection, schedule: Q01DX009 (ip), vehicle: saline with Tween-80
[15] = dose: 100.0 mg/kg/injection, schedule: Q01DX001 (ip), vehicle: saline
[16] = dose: 200.0 mg/kg/injection, schedule: Q01DX001 (ip), vehicle: saline
[17] = dose: 400.0 mg/kg/injection, schedule: Q01DX001 (ip), vehicle: saline
[18] = dose: 50.0 mg/kg/injection, schedule: Q01DX009 (ip), vehicle: Klucel (hydroxypropylcellulose) (HPC)
[19] = dose: 25.0 mg/kg/injection, schedule: Q01DX009 (ip), vehicle: saline with Tween-80
[20] = dose: 50.0 mg/kg/injection, schedule: Q01DX009 (ip), vehicle: saline with Tween-80
[21] = dose: 100.0 mg/kg/injection, schedule: Q01DX009 (ip), vehicle: saline

Measured: T/C

CC(C)N=Cc1cc(Cl)ccc1O.CC(C)N=Cc1cc(Cl)ccc1O.[Co]
inactive: dose: 50.0 mg/kg/injection, schedule: Q04DX003 (ip), vehicle: saline 94 % of control | [1] 102 % of control | [2] 105 % of control

O=C(N/C=C/NC(=O)Nc1ccc([N+](=O)[O-])cc1)Nc1ccc([N+](=O)[O-])cc1
inactive: [3] 100 % of control | [4] 89 % of control | [5] 92 % of control

COc1ccc(C(=O)Nc2ccccc2)cc1NC(=O)Nc1ccccc1C(F)(F)F
inactive: [6] 92 % of control | [7] 101 % of control | [8] 95 % of control

O=C/C(=C/Nc1ccc(C(=O)O)cc1)[N+](=O)[O-]
inactive: dose: 100.0 mg/kg/injection, schedule: Q04DX002 (ip), vehicle: Klucel (hydroxypropylcellulose) (HPC) 109 % of control | dose: 200.0 mg/kg/injection, schedule: Q04DX002 (ip), vehicle: Klucel (hydroxypropylcellulose) (HPC) 98 % of control | dose: 400.0 mg/kg/injection, schedule: Q04DX002 (ip), vehicle: Klucel (hydroxypropylcellulose) (HPC) 98 % of control

C/C=C/c1ccc2ccccc2c1
inactive: [9] 104 % of control | [10] 96 % of control | [11] 104 % of control

O=C1C=CC2C=CC1C(C(=O)O)C2C(=O)O (configuration not stated) (tested in a mixture with another compound)
inactive: dose: 100.0 mg/kg/injection, schedule: Q01DX001 (ip), vehicle: saline with Tween-80 95 % of control | dose: 200.0 mg/kg/injection, schedule: Q01DX001 (ip), vehicle: saline with Tween-80 90 % of control | dose: 400.0 mg/kg/injection, schedule: Q01DX001 (ip), vehicle: saline with Tween-80 92 % of control

CCCCCCC(O)CCCCCCCCCCC(=O)OC (configuration not stated)
inactive: [12] 98 % of control | [13] 88 % of control | [14] 92 % of control

CCCCCCCCCC(N)C(=O)O (configuration not stated)
inactive: dose: 50.0 mg/kg/injection, schedule: Q04DX002 (ip), vehicle: gum acacia 100 % of control | dose: 100.0 mg/kg/injection, schedule: Q04DX002 (ip), vehicle: gum acacia 98 % of control | dose: 200.0 mg/kg/injection, schedule: Q04DX002 (ip), vehicle: gum acacia 100 % of control

CC(C)(C)C(=O)CC(=O)C(C)(C)C.CC(C)(C)C(=O)CC(=O)C(C)(C)C.[Ni]
inactive: dose: 10.0 mg/kg/injection, schedule: Q04DX003 (ip), vehicle: saline 100 % of control | dose: 20.0 mg/kg/injection, schedule: Q04DX003 (ip), vehicle: saline 94 % of control | dose: 40.0 mg/kg/injection, schedule: Q04DX003 (ip), vehicle: saline 117 % of control

CSc1nc(Cl)c2ncn(C3C=CC(O)C(CO)O3)c2n1 (configuration not stated)
inactive: dose: 100.0 mg/kg/injection, schedule: Q01DX005 (ip), vehicle: saline 95 % of control | dose: 200.0 mg/kg/injection, schedule: Q01DX005 (ip), vehicle: saline 92 % of control

O=C1NC(=O)C2(CCN(c3ccccc3)CC2)C(=O)N1
inactive: [15] 94 % of control | [16] 96 % of control | [17] 96 % of control

CN1CCCCCCCC(=O)C(OC(=O)c2ccc([N+](=O)[O-])cc2)CCCCCCC1 (configuration not stated)
inactive: dose: 50.0 mg/kg/injection, schedule: Q01DX001 (ip), vehicle: carboxymethylcellulose (CMC) 95 % of control | [9] 97 % of control | [10] 95 % of control | [11] 95 % of control

Nc1nccs1
inactive: dose: 0.75 mg/kg/injection, schedule: Q01DX009 (ip), vehicle: carboxymethylcellulose (CMC) 100 % of control | dose: 1.5 mg/kg/injection, schedule: Q01DX009 (ip), vehicle: carboxymethylcellulose (CMC) 103 % of control | dose: 1.5 mg/kg/injection, schedule: Q04DX002 (ip), vehicle: saline with Tween-80 93 % of control | dose: 3.0 mg/kg/injection, schedule: Q01DX009 (ip), vehicle: carboxymethylcellulose (CMC) 100 % of control | dose: 3.0 mg/kg/injection, schedule: Q04DX002 (ip), vehicle: saline with Tween-80 90 % of control | dose: 3.5 mg/kg/injection, schedule: Q04DX002 (ip), vehicle: saline with Tween-80 91 % of control | dose: 6.0 mg/kg/injection, schedule: Q01DX009 (ip), vehicle: carboxymethylcellulose (CMC) 100 % of control | dose: 12.0 mg/kg/injection, schedule: Q01DX009 (ip), vehicle: carboxymethylcellulose (CMC) 103 % of control | dose: 12.0 mg/kg/injection, schedule: Q04DX002 (ip), vehicle: saline with Tween-80 101 % of control and 91 % of control

C=CCN(CC=C)C(=O)Nc1ccc(Cl)c(C(F)(F)F)c1
inactive: [12] 97 % of control | [13] 105 % of control | [14] 110 % of control

Cc1cc(=O)[nH]c(N/N=C/C(C)C)n1
inactive: [18] 95 % of control | [6] 95 % of control | [3] 95 % of control | [7] 93 % of control | [4] 89 % of control

NC(CSSCC(NC(=O)C(F)(F)F)C(=O)O)C(=O)O (configuration not stated)
inactive: dose: 50.0 mg/kg/injection, schedule: Q01DX001 (ip), vehicle: saline 96 % of control | [15] 98 % of control | [16] 93 % of control

C=CC1CN2CCC1CC2C(O)c1ccnc2ccccc12 (configuration not stated) (tested in a mixture with another compound)
inactive: [19] 101 % of control | [20] 98 % of control | [9] 91 % of control | [12] 93 % of control | [10] 98 % of control | [11] 93 % of control

CCCCN=Cc1cc([N+](=O)[O-])ccc1O.CCCCN=Cc1cc([N+](=O)[O-])ccc1O.[Ni]
inactive: dose: 12.5 mg/kg/injection, schedule: Q01DX009 (ip), vehicle: saline with Tween-80 98 % of control | [19] 94 % of control | [20] 86 % of control

NCCSSSSCCN
inactive: [15] 96 % of control | [16] 105 % of control

C1CCC2C[N-]CCC2C1.C1CCC2C[N-]CCC2C1.C1CCC2C[N-]CCC2C1.C1CCC2C[N-]CCC2C1.[I][Fe][I] (configuration not stated)
inactive: dose: 50.0 mg/kg/injection, schedule: Q01DX009 (ip), vehicle: saline 89 % of control | [21] 94 % of control

CN(C)CCSCCN1c2ccccc2Sc2ccc(Cl)cc21
inactive: [1] 104 % of control

CC(=O)Nc1nc(C)c(CCC#N)c(=O)[nH]1
inactive: [21] 101 % of control | [1] 96 % of control | dose: 200.0 mg/kg/injection, schedule: Q01DX009 (ip), vehicle: saline 101 % of control | [2] 91 % of control | dose: 400.0 mg/kg/injection, schedule: Q01DX009 (ip), vehicle: saline 95 % of control | dose: 400.0 mg/kg/injection, schedule: Q04DX003 (ip), vehicle: saline 101 % of control

OCC1OC(n2ncc3c(Cl)ccnc32)C(O)C1O (configuration not stated)
inactive: dose: 50.0 mg/kg/injection, schedule: Q01DX005 (ip), vehicle: other 91 % of control

CC(=O)C(Cl)C(C)=O.CC(=O)C(Cl)C(C)=O.CO.CO.[Ni]
inactive: dose: 12.0 mg/kg/injection, schedule: Q01DX009 (ip), vehicle: other 91 % of control | dose: 25.0 mg/kg/injection, schedule: Q01DX009 (ip), vehicle: other 93 % of control | [15] 112 % of control | [16] 89 % of control

O=C(O)CNC(=O)CCl
inactive: [18] 87 % of control | [6] 90 % of control | [3] 94 % of control | [4] 89 % of control

CCOC(=O)/C(C)=N\Nc1ccc(Cl)cc1
inactive: [6] 106 % of control | [3] 102 % of control | [7] 98 % of control | [4] 98 % of control | [8] 98 % of control | [5] 99 % of control

CC1(C)N=C(N)N=C(N)N1c1ccc(CC(C(=O)Nc2ccc(S(=O)(=O)F)cc2)c2cccc3ccccc23)cc1 (configuration not stated)
inactive: dose: 100.0 mg/kg/injection, schedule: Q01DX001 (ip), vehicle: Klucel (hydroxypropylcellulose) (HPC) 95 % of control | dose: 200.0 mg/kg/injection, schedule: Q01DX001 (ip), vehicle: Klucel (hydroxypropylcellulose) (HPC) 89 % of control | dose: 400.0 mg/kg/injection, schedule: Q01DX001 (ip), vehicle: Klucel (hydroxypropylcellulose) (HPC) 89 % of control

COCCO
inactive: [15] 105 % of control | [16] 103 % of control | [17] 105 % of control
